# Data: publication PMC12467033, “Exploring the Inhibitory Potential of Six Porphyrin Compounds Against α-Amylase and α-Glucosidase Linked to Diabetes” (Biomolecules, 2025)
# “And” between values parts separate entries of the source, which are not always exact repeats. Equal entries are not always repeated. Where two headings read alike, the source gives them in different places.
# Tests used:
# [1] = molecular target: T1, α-amylase (Sus scrofa, UniProt P00690); experiment: Mode of α-AMY inhibition (reversibility, Lineweaver–Burk kinetics); format: biochemical; conditions: for type of inhibition of α-amylase: Lineweaver–Burk plots; for reversibility of inhibition of α-amylase: enzyme 100–400 U/L, substrate 5 mmol/L; for Kis: enzyme–substrate complex inhibition constant
# T1 sequence (P00690 16-511): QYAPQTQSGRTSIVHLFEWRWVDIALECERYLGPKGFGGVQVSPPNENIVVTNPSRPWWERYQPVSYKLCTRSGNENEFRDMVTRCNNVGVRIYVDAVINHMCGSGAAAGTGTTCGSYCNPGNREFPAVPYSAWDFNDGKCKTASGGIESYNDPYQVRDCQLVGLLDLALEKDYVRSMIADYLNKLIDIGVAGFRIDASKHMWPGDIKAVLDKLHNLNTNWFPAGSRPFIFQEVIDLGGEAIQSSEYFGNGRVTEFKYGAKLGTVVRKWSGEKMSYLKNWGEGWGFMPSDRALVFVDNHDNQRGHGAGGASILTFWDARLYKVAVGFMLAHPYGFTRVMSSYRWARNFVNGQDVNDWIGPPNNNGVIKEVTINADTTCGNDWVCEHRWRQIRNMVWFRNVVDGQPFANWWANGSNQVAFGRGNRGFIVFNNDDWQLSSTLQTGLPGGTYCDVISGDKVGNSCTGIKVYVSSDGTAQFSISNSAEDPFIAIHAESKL
# Excerpt: (§1) In the experiment, the concentration of the fixed substrate Gal-G2-α-CNP/pNPG solution was 5 mmol/L, and the concentrations of the two enzymes (100, 200, 300, 400 U/L) were used to determine the effect of different concentrations of porphyrins on enzyme activity. The concentration of the enzyme was 200 U/L, and the concentration of the substrate Gal-G2-α-CNP/pNPG solution (2.5, 5, 7.5, 10 mmol/L) was used to determine the effect of different concentrations of porphyrins on the enzyme-catalyzed substrate activity.
# (§2) Upon identifying the type of inhibition, the kinetic equations vary for different inhibition types.
# (§3) In the formula, v, Vmax, Km, Ki, and Kis represent the reaction rate, maximum reaction rate, Michaelis constant, and free enzyme inhibition constant, respectively, and the binding enzyme inhibition constant. [S] denotes the substrate concentration. [I] denotes the inhibitor concentration.
# [2] = molecular target: T2, α-glucosidase (Saccharomyces cerevisiae, UniProt P53341); format: biochemical; conditions: for type of inhibition of α-glucosidase: Lineweaver–Burk plots; for reversibility of inhibition of α-glucosidase: enzyme 100–400 U/L, substrate 5 mmol/L
# T2 sequence (P53341 whole entry): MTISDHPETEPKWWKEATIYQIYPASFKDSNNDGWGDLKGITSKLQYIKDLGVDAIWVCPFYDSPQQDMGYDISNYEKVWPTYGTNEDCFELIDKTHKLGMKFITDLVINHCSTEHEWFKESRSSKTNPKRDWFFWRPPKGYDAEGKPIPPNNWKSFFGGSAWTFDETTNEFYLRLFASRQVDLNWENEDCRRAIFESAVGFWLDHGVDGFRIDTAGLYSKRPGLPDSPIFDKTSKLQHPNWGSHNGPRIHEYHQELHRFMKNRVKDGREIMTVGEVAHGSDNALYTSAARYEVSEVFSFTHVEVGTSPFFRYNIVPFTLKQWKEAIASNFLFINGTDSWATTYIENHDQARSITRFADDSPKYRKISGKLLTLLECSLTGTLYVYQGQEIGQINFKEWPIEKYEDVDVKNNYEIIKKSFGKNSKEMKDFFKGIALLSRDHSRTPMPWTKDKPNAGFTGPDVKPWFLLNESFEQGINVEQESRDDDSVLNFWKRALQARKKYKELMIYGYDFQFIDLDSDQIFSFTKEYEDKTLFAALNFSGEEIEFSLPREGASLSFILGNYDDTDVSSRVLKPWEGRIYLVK
# Excerpt: as §1, §2, §3
# [3] = molecular target: T2, α-glucosidase; experiment: Fluorescence quenching, binding and thermodynamics with α-glucosidase; conditions: for binding constants K: 310 K; for quenching mechanism of α-glucosidase fluorescence: Stern–Volmer plots; for quenching mechanism of α-glucosidase fluorescence / ΔH^0 / ΔS^0: 298–310 K; for ΔH^0 / ΔS^0: Van’t Hoff
# Description: In the α-amylase experiment, a series of porphyrins and amylase (200 U/L) were mixed in a volume ratio of 1:1. In the α-glucosidase experiment, the glucosidase concentration was 400 U/L, mixed in a volume ratio of 1:1; the samples were maintained at three different temperatures (298, 304, and 310 K) for 30 min, with excitation at 280 nm and emission scanning from 300 to 500 nm.
# The Stern–Volmer equation [35] was adopted to determine the quenching mechanisms between six porphyrin compounds and both enzymes in the experimental group, with Formula (6):(6) F0/F=1+Ksv[Q]=1+Kqτ0[Q]
# The Stern–Volmer equation was adapted based on experimental data to more accurately characterize the quenching behavior [36], with Formula (7):(7) F0/F=e^Ksv[Q]=e^Kqτ0[Q]
# In the formula, the fluorescence quenching ratio was calculated as F0/F, where F0 corresponds to the emission intensity of pure α-amylase solution (control) and F denotes the intensity measured after the incremental addition of porphyrin ligands. KSV and Kq denote the Stern–Volmer quenching constant and the bimolecular quenching rate constant, respectively, τ0 (10^−8 s) is the average fluorescence lifetime of the fluorophore in the absence of quencher, and [Q] indicates the concentration of porphyrin compounds.
# Due to the presence of an internal filtration effect, a decrease in the fluorescence intensity of the system may occur. Therefore, all fluorescence data were corrected using Formula (8) to eliminate the internal filtration effect.(8) Fcor=Fobse^(Aex+Aem)/2
# The evaluation of the interaction forces between porphyrin compounds and the two enzymes can be achieved by calculating thermodynamic parameters. When both ΔH^0 and ΔS^0 are positive, the predominant interaction force is hydrophobic. When both ΔH^0 and ΔS^0 are negative, the main forces are hydrogen bonding and van der Waals forces. When ΔH^0 < 0 and ΔS^0 > 0, the primary interaction is electrostatic attraction.
# The thermodynamic parameters were calculated using Formulas (9) and (10), and then the Van’t Hoff plot for the interactions between the porphyrin compounds and the two enzymes was generated by plotting lnKa on the Y-axis versus 1/T on the X-axis.(9) lnKa=−ΔH^0/RT+ΔS^0/R (10) ΔG^0=ΔH^0−TΔS^0=−RTlnKa
# [4] = molecular target: T1, α-amylase; experiment: Three-dimensional fluorescence spectroscopy of α-amylase complexes; conditions: 298 K; TAPP 2.5, THPP 10, TCPP 10, Fe–TCPP 12.5, Ni–TCPP 17.5, Cu–TCPP 10 μg/mL
# [5] = molecular target: T1, α-amylase; experiment: FTIR secondary structure analysis of α-AMY complexes; conditions: enzyme–porphyrin molar ratio 1:2, amide I band
# Excerpt: (§4) A molar ratio of 1:2 (α-amylase/α-glucosidase)–porphyrin solution was placed in a cryocentrifugal concentrator and the dried solid sample was mixed with dry KBr and measured using a Nicolet IS-50 FTIR Spectrometer (ThermoFisher, Waltham, MA, USA) with a scanning range of 4000–400 cm^−1 and a resolution of 4 cm^−1. The overlapping peaks in the amide I band (1700–1600 cm^−1) were further analyzed into multiple feature sub-peaks, and quantitative analysis of the relative content of various secondary structures in proteins using curve fitting methods was performed.
# [6] = molecular target: T2, α-glucosidase; experiment: FTIR secondary structure analysis of α-GLU complexes; conditions: enzyme–porphyrin molar ratio 1:2, amide I band
# Excerpt: as §4
# [7] = free enzyme inhibition constant
smiles,measurement,setting,value
"O=C(O)c1ccc(-c2c3nc(c(-c4ccc(C(=O)O)cc4)c4ccc([nH]4)c(-c4ccc(C(=O)O)cc4)c4nc(c(-c5ccc(C(=O)O)cc5)c5ccc2[nH]5)C=C4)C=C3)cc1.[Cu+2] [Cu–TCPP, copper (II) meso-tetra (4-carboxyphenyl)porphyrin]",Km,[1]; C 25 μg/mL,2.8021 ± 0.0410 µg/mL
same,Vmax,[1]; C 25 μg/mL,0.1101 ± 0.0016 ΔOD/min
same,Km,[1]; C 50 μg/mL,3.1685 ± 0.0729 µg/mL
same,Vmax,[1]; C 50 μg/mL,0.1050 ± 0.0024 ΔOD/min
same,Km,[1]; C 100 μg/mL,3.5949 ± 0.0569 µg/mL
same,Vmax,[1]; C 100 μg/mL,0.0923 ± 0.0015 ΔOD/min
same,Km,[1]; C 150 μg/mL,3.9016 ± 0.1355 µg/mL
same,Vmax,[1]; C 150 μg/mL,0.0860 ± 0.0031 ΔOD/min
same,Km,[1]; C 200 μg/mL,4.2470 ± 0.0673 µg/mL
same,Vmax,[1]; C 200 μg/mL,0.0785 ± 0.0012 ΔOD/min
same,type of inhibition of α-amylase,[1],mixed type
same,reversibility of inhibition of α-amylase,[1],reversible inhibition
same,Kis,[1],420.9420 ± 0.2189 µg/mL
same,Ki,[1]; [7],135.8043 ± 0.1608 µg/mL
same,Km,[2],3.3657 ± 0.0431 µg/mL and 3.8284 ± 0.1475 µg/mL and 4.7824 ± 0.1009 µg/mL and 5.4948 ± 0.1841 µg/mL and 6.4626 ± 0.1103 µg/mL
same,Vmax,[2]; C 5 μg/mL,0.1496 ± 0.0019 ΔOD/min
same,Vmax,[2]; C 10 μg/mL,0.1344 ± 0.0052 ΔOD/min
same,Vmax,[2]; C 25 μg/mL,0.1028 ± 0.0022 ΔOD/min
same,Vmax,[2]; C 50 μg/mL,0.0718 ± 0.0024 ΔOD/min
same,Vmax,[2]; C 100 μg/mL,0.0473 ± 0.0008 ΔOD/min
same,type of inhibition of α-glucosidase,[2],mixed type
same,reversibility of inhibition of α-glucosidase,[2],reversible inhibition
same,Kis,[2]; enzyme–substrate complex inhibition constant,38.9429 ± 0.1021 µg/mL
same,Ki,[2]; [7],13.7332 ± 0.0823 µg/mL
same,binding constants K,[3],(0.69 ± 0.01) × 10^5 L·mol^−1
same,quenching mechanism of α-glucosidase fluorescence,[3],static quenching
same,Ka (binding constant),[3]; T 298 K,55.21 ± 0.11 ×10^5 L/mol
same,Kq,[3]; T 298 K,7.35 ± 0.09 ×10^12 L/mol/s
same,Ksv,[3]; T 298 K,7.35 ± 0.09 ×10^4 L/mol
same,n (number of binding sites),[3]; T 298 K,1.44
same,ΔG^0,[3]; T 298 K,-9.192 ± 0.019 kcal/mol
same,Ka (binding constant),[3]; T 304 K,7.38 ± 0.04 ×10^5 L/mol
same,Kq,[3]; T 304 K,6.74 ± 0.03 ×10^12 L/mol/s
same,Ksv,[3]; T 304 K,6.74 ± 0.03 ×10^4 L/mol
same,n (number of binding sites),[3]; T 304 K,1.25
same,ΔG^0,[3]; T 304 K,-8.162 ± 0.012 kcal/mol
same,Ka (binding constant),[3]; T 310 K,0.69 ± 0.01 ×10^5 L/mol
same,Kq,[3]; T 310 K,5.05 ± 0.02 ×10^12 L/mol/s
same,Ksv,[3]; T 310 K,5.05 ± 0.02 ×10^4 L/mol
same,n (number of binding sites),[3]; T 310 K,1.03
same,ΔG^0,[3]; T 310 K,-6.859 ± 0.0096 kcal/mol
same,ΔH^0,[3],-67.103 ± 0.0311 kcal/mol
same,ΔS^0,[3],−812.45 ± 0.17 J/mol/k
same,Peak 1 Fluorescence Intensity,[4],313.1
same,Peak 2 Fluorescence Intensity,[4],16.48
same,Random Coil,[5],20.94 ± 0.06%
same,α-Helix,[5],20.76 ± 0.05%
same,β-Antiparallel,[5],12.17 ± 0.02%
same,β-Sheet,[5],10.94 ± 0.01%
same,β-Turn,[5],35.19 ± 0.06%
same,Random Coil,[6],25.05 ± 0.07%
same,α-Helix,[6],23.65 ± 0.03%
same,β-Antiparallel,[6],2.59 ± 0.01%
same,β-Sheet,[6],10.93 ± 0.05%
same,β-Turn,[6],37.78 ± 0.09%
Oc1ccc(-c2c3nc(c(-c4ccc(O)cc4)c4ccc([nH]4)c(-c4ccc(O)cc4)c4nc(c(-c5ccc(O)cc5)c5ccc2[nH]5)C=C4)C=C3)cc1 [THPP],Vmax,[1]; C 20 μg/mL,0.0740 ± 0.0028 ΔOD/min
same,Vmax,[1]; C 30 μg/mL,0.0580 ± 0.0010 ΔOD/min
same,Vmax,[1]; C 40 μg/mL,0.0491 ± 0.0012 ΔOD/min
same,Vmax,[1]; C 50 μg/mL,0.0426 ± 0.0013 ΔOD/min
same,Vmax,[1]; C 60 μg/mL,0.0376 ± 0.0012 ΔOD/min
same,type of inhibition of α-amylase,[1],mixed type
same,reversibility of inhibition of α-amylase,[1],reversible inhibition
same,Kis,[1],23.1012 ± 0.1027 µg/mL
same,Vmax,[2]; C 1 μg/mL,0.1528 ± 0.0020 ΔOD/min
same,Vmax,[2]; C 2.5 μg/mL,0.1013 ± 0.0035 ΔOD/min
same,Vmax,[2]; C 5 μg/mL,0.0649 ± 0.0019 ΔOD/min
same,Vmax,[2]; C 7.5 μg/mL,0.0489 ± 0.0009 ΔOD/min
same,Vmax,[2]; C 10 μg/mL,0.0377 ± 0.0009 ΔOD/min
same,type of inhibition of α-glucosidase,[2],non-competitive inhibition
same,reversibility of inhibition of α-glucosidase,[2],reversible inhibition
same,binding constants K,[3],(3.39 ± 0.03) × 10^5 L·mol^−1
same,quenching mechanism of α-glucosidase fluorescence,[3],static quenching
same,Kq,[3]; T 298 K,7.40 ± 0.06 ×10^12 L/mol/s
same,Ksv,[3]; T 298 K,7.40 ± 0.06 ×10^4 L/mol
same,n (number of binding sites),[3]; T 298 K,1.29
same,ΔG^0,[3]; T 298 K,-8.439 ± 0.0239 kcal/mol
same,Kq,[3]; T 304 K,6.97 ± 0.06 ×10^12 L/mol/s
same,Ksv,[3]; T 304 K,6.97 ± 0.06 ×10^4 L/mol
same,n (number of binding sites),[3]; T 304 K,1.23
same,ΔG^0,[3]; T 304 K,-8.212 ± 0.022 kcal/mol
same,Kq,[3]; T 310 K,6.69 ± 0.04 ×10^12 L/mol/s
same,Ksv,[3]; T 310 K,6.69 ± 0.04 ×10^4 L/mol
same,n (number of binding sites),[3]; T 310 K,1.16
same,ΔG^0,[3]; T 310 K,-7.844 ± 0.014 kcal/mol
same,ΔH^0,[3],-23.22 ± 0.022 kcal/mol
same,ΔS^0,[3],−207.25 ± 0.13 J/mol/k
same,Peak 1 Fluorescence Intensity,[4],297.5
same,Peak 2 Fluorescence Intensity,[4],32.69
same,Random Coil,[5],17.71 ± 0.07%
same,α-Helix,[5],22.24 ± 0.06%
same,β-Antiparallel,[5],13.37 ± 0.03%
same,β-Sheet,[5],12.92 ± 0.05%
same,β-Turn,[5],33.76 ± 0.08%
same,Random Coil,[6],23.74 ± 0.06%
same,α-Helix,[6],21.19 ± 0.05%
same,β-Antiparallel,[6],7.07 ± 0.01%
same,β-Sheet,[6],12.79 ± 0.03%
same,β-Turn,[6],35.20 ± 0.11%
